Test results from the supplement of paper PMC10307832.

How the values were obtained:
Assay in all cases: relative viability (nuclei count vs DMSO), 5 days (fraction); higher = more cells survive
AT9283 + Luminespib = compound: O=C(Nc1c[nH]nc1-c1nc2ccc(CN3CCOCC3)cc2[nH]1)NC1CC1 [AT9283] + CCNC(=O)c1noc(-c2cc(C(C)C)c(O)cc2O)c1-c1ccc(CN2CCOCC2)cc1 [Luminespib] (partner 0.01 µM)
Summary of the method: (§1)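 Five library-drug doses in √10 steps were combined with a fixed anchor-drug dose, or a single drug was given alone, by pin tool to lung cancer cell lines in 1536-well plates the day after seeding. Nuclei were stained and counted after 5 days. Relative viability is the nuclei count in treated wells over that in vehicle wells, taken as the median of duplicate plates.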

Erlotinib + Pictilisib = compound: C#Cc1cccc(Nc2ncnc3cc(OCCOC)c(OCCOC)cc23)c1 [Erlotinib] + CS(=O)(=O)N1CCN(Cc2cc3nc(-c4cccc5[nH]ncc45)nc(N4CCOCC4)c3s2)CC1 [Pictilisib] (partner 1 µM)
Summary of the method: as §1

Erlotinib + Linsitinib = compound: C#Cc1cccc(Nc2ncnc3cc(OCCOC)c(OCCOC)cc23)c1 [Erlotinib] + C[C@]1(O)C[C@@H](c2nc(-c3ccc4ccc(-c5ccccc5)nc4c3)c3c(N)nccn32)C1 [Linsitinib] (partner 1 µM)
Summary of the method: as §1

Erlotinib + Lapatinib = compound: C#Cc1cccc(Nc2ncnc3cc(OCCOC)c(OCCOC)cc23)c1 [Erlotinib] + CS(=O)(=O)CCNCc1ccc(-c2ccc3ncnc(Nc4ccc(OCc5cccc(F)c5)c(Cl)c4)c3c2)o1 [Lapatinib] (partner 2 µM)
Summary of the method: as §1

AT9283 + Bortezomib = compound: O=C(Nc1c[nH]nc1-c1nc2ccc(CN3CCOCC3)cc2[nH]1)NC1CC1 [AT9283] + CC(C)C[C@H](NC(=O)[C@H](Cc1ccccc1)NC(=O)c1cnccn1)B(O)O [Bortezomib] (partner 0.002 µM)
Summary of the method: as §1

Cell Line | relative viability (AT9283 + Luminespib; first compound 0.003 µM) | relative viability (AT9283 + Luminespib; first compound 0.03 µM) | relative viability (AT9283 + Luminespib; first compound 0.09487 µM) | relative viability (AT9283 + Luminespib; first compound 0.3 µM) | relative viability (Erlotinib + Pictilisib; first compound 0.02 µM) | relative viability (Erlotinib + Pictilisib; first compound 0.2 µM) | relative viability (Erlotinib + Pictilisib; first compound 0.6325 µM) | relative viability (Erlotinib + Pictilisib; first compound 2 µM) | relative viability (Erlotinib + Linsitinib; first compound 0.02 µM) | relative viability (Erlotinib + Linsitinib; first compound 0.2 µM) | relative viability (Erlotinib + Linsitinib; first compound 0.6325 µM) | relative viability (Erlotinib + Linsitinib; first compound 2 µM) | relative viability (Erlotinib + Lapatinib; first compound 0.02 µM) | relative viability (Erlotinib + Lapatinib; first compound 0.2 µM) | relative viability (Erlotinib + Lapatinib; first compound 0.6325 µM) | relative viability (AT9283 + Bortezomib; first compound 0.003 µM) | relative viability (AT9283 + Bortezomib; first compound 0.03 µM) | relative viability (AT9283 + Bortezomib; first compound 0.09487 µM) | relative viability (AT9283 + Bortezomib; first compound 0.3 µM) | relative viability (Erlotinib + Lapatinib; first compound 2 µM)
NCI-H522 | 1.14 | 0.99 | 0.467 | 0.51 | – | – | – | – | – | – | – | – | – | – | – | – | – | – | – | –
NCI-H1299 | – | – | – | – | 0.894 | 0.839 | 0.918 | 0.55 | 1.07 | 0.968 | 1.04 | 0.956 | 0.994 | 0.995 | 0.904 | 1.07 | 1.02 | 0.437 | 0.395 | –
NCI-H1395 | 0.639 | 0.649 | 0.397 | 0.418 | 0.71 | 0.638 | 0.567 | 0.733 | 1.1 | 1.1 | 1.23 | 1.06 | – | 1.11 | 1.02 | – | – | – | – | 0.961
NCI-H1623 | 0.466 | 0.559 | 0.437 | 0.37 | – | – | – | – | – | – | – | – | – | – | – | – | – | – | – | –
NCI-H1650 | 0.21 | 0.182 | 0.219 | 0.231 | 0.483 | – | 0.578 | 0.47 | – | – | – | – | 0.705 | 0.728 | 0.899 | 0.206 | 0.222 | 0.231 | 0.215 | 0.828
NCI-H1703 | – | – | – | – | 0.233 | 0.218 | 0.29 | 0.243 | 0.749 | 0.818 | 1.08 | 0.924 | 1.42 | – | 1.21 | 0.452 | 0.196 | 0.141 | 0.169 | 0.992
NCI-H1793 | 0.194 | 0.184 | 0.179 | 0.136 | 0.272 | 0.386 | 0.306 | 0.302 | 0.785 | 0.397 | 0.767 | 0.651 | – | 0.517 | 0.916 | – | – | – | – | 0.591
NCI-H1944 | 0.778 | 0.483 | 0.195 | 0.205 | 0.357 | 0.304 | 0.346 | 0.33 | 1.17 | – | 0.776 | 0.642 | 0.79 | 0.65 | 1.05 | – | – | – | – | 0.816
NCI-H2170 | 0.821 | 0.574 | 0.509 | 0.176 | 0.316 | 0.282 | 0.236 | 0.176 | – | – | – | – | 0.283 | 0.264 | 0.293 | – | – | – | – | 0.24
NCI-H2342 | 0.795 | 0.93 | 0.499 | 0.348 | – | – | – | – | – | – | – | – | – | – | – | – | – | – | – | –
SK-MES-1 | 0.885 | 0.821 | 0.405 | 0.22 | 0.287 | 0.245 | 0.258 | 0.22 | 1.09 | 0.767 | 0.537 | 0.434 | 0.511 | 0.452 | 0.476 | – | – | – | – | 0.434
SW 900 | 0.178 | 0.19 | 0.172 | 0.171 | – | – | – | – | – | – | – | – | – | – | – | – | – | – | – | –
